Laboratory results published in patent US20050026949A1, “Methods of therapeutic treatment using amounts of retinoids without regard to body weight” (Allergan, Inc., priority 2003, published 2005).

Experiments:
[1] = system: patients with moderate to very severe plaque psoriasis; assay: Open-label extension study of oral tazarotene (Example 4); type: in vivo, human
Procedure: Two multicenter, double-blind, placebo-controlled studies ware conducted to evaluate the efficacy and safety of oral tazarotene (4.5 mg once daily) in patients with moderate to very severe plaque psoriasis. […] Efficacy evaluations include overall lesional assessment (OLA), percent body surface area involvement, global response to treatment, plaque elevation, scaling, and erythema. OLA is graded on a 6-point scale (0=none, 1=minimal, 2=mild, 3=moderate, 4=severe, 5=very severe).

[2] = system: patients with severe nodulocystic acne; assay: Multicenter double-blind placebo-controlled study of oral tazarotene (Example 10); type: in vivo, human; settings: for patients withdrawing due to lack of efficacy: placebo 17%; for reduction in mean facial papule or pastule count / reduction in mean facial non-inflammatory lesion count / reduction in mean total facial nodulocystic lesion count: end of treatment; for reduction in mean facial papule or pastule count: placebo 31%; for reduction in mean facial non-inflammatory lesion count: placebo 45%; for reduction in mean total facial nodulocystic lesion count: placebo 55%
From the text: A multicenter, double-blind, randomized, placebo-controlled parallel-group study is undertaken to determine the efficacy of orally administered tazarotene in treating severe nodulocystic acne.
In addition, washout periods for other medications for this study are: 1 week for vitamin A supplements >5000 IU; 2 weeks for topical anti-acne medications (e.g., retinoids, azelaic acid, benzoyl peroxide); 2 weeks for topical or systemic antibiotic therapy that may alter the course of acne; and 6 months for systemic retinoids.
Patients are randomized to receive placebo or oral tazarotene (0.75, 1.5, 3, or 6 mg), in a 1:1:1:1:1 ratio once daily for 24 weeks. After this, the patients are followed without treatment for an additional 12 weeks. Patients discontinuing from the treatment period due to adverse effects or lack of efficacy are eligible for entry into the post-treatment phase.
In the study, overall acne severity is rated as: none (no inflammatory acne lesions); mild (few to several papules or pustules, no nodulocystic lesions); moderate (several to many papules or pustules, few to several nodulocystic lesions); and severe (numerous or extensive papules or pustules, many, for example, at least about 5 or at least about 10, nodulocystic lesions).
Treatment success is defined as at least moderate (about 50%) improvement on the following 7-point global response scale: • 0=completely cleared • 1=almost cleared (about 90% improvement) • 2=marked response (about 75% improvement) • 3=moderate response (about 50% improvement) • 4=slight response (about 25% improvement) • 5=condition unchanged • 6=condition worsened
In this study, facial nodulocystic lesion count includes lesions greater than 5 mm in size. Facial papular/pustular lesion count includes lesions less than or equal to 5 mm in size. Facial non-inflammatory lesion count includes open and closed comedones.
Sebum output is assessed every 4 weeks at selected centers using the Sebutape® patches, sold by Cuderm Corporation. Urinalysis, chemistry, and hematology values are monitored. Bone formation and resorption assessments (serum bone alkaline phosphatase and serum amino terminal telopeptides, respectively) at selected centers are monitored.
Bone mineral density of spine and proximal femur at selected centers is monitored. Ligament calcification or osteophyte formation (lateral X-ray of the cervical and thoracic spine, and ankle calcaneous) is monitored. Epiphyseal growth plate closure (internal oblique X-ray of the ankle in patients less than or equal to 21 years old) is monitored.

[3] = system: patients with moderate to very severe plaque psoriasis; assay: Open-label extension study of oral tazarotene (Example 4); type: in vivo, human; settings: 4.5 mg once daily, 12-week extension treatment period, both groups
[4] = system: patient with severe psoriasis; assay: Patient with severe psoriasis taking Ortho-Novum treated with tazarotene (Example 9); type: in vivo, human
From the text: The patient presents symptoms of severe psoriasis. The symptoms include lesions approximately 4 to 10 centimeters across appearing as raised patches of wine red skin many of which are covered in silvery white scales. The lesions are mostly dry and rough, and quite often noticeably warm to the touch. The lesions are present on the elbows, knees, scalp, and groin area. The patient experiences intense burning and itching associated with the lesions.
The patient is currently taking Ortho-Novum® for contraception.
Tazarotene at a dose of 6 mg per day is prescribed.

AP1 = AP1 antagonism
[5] = 4.5 mg once daily, 12-week extension treatment period, both groups
[6] = 4.5 mg once daily, extension study
[7] = 0.75 to 6 mg once daily for 24 weeks

changes in liver function test values or cholesterol levels [1, 6]: no clinically significant changes
bone formation and resorption (serum bone alkaline phosphatase, serum amino terminal telopeptides) [2, 7]: do not appear to be altered
SMILES: CCOC(=O)c1ccc(C#Cc2ccc3c(c2)C(C)(C)CCS3)nc1 [tazarotene]
incidence of arthralgia [1, 5]: 20%
incidence of cheilitis [1, 5]: 70%
incidence of dry skin [1, 5]: 25%
incidence of hypertriglyceridemia [1, 5]: 6%
patients with clinical success (2-grade reduction in OLA) ([1]; 4.5 mg once daily, end of the 12-week treatment period): 28%
serious adverse events [1, 6]: no serious adverse events considered related to the study treatment
patients with clinical success (2-grade reduction in OLA) ([1]; end of the 12-week post-treatment period): 16%
patients withdrawing due to adverse events in the treatment period ([2]; 0.75 mg group (2/35)): 6%
patients withdrawing due to lack of efficacy ([2]; 0.75 mg group (7/35)): 20%
patients with either no acne or mild acne ([2]; 0.75 mg group, end of the treatment phase, placebo 19%): 34%
reduction in mean facial papule or pastule count ([2]; 0.75 mg group): 37%
reduction in mean facial non-inflammatory lesion count ([2]; 0.75 mg group): 46%
reduction in mean total facial nodulocystic lesion count ([2]; 0.75 mg group): 66%
mean total facial nodulocystic lesion count at the end of the treatment period ([2]; 0.75 mg group, from 12.2 at baseline): 4.2
mean facial papule or pastule count at the end of the treatment period ([2]; 0.75 mg group, from 32.3 at baseline): 20.3
mean facial non-inflammatory lesion count at the end of the treatment period ([2]; 0.75 mg group, from 56.3 at baseline): 30.3
patients withdrawing due to adverse events in the treatment period ([2]; 1.5 mg group (0/37)): 0%
patients withdrawing due to lack of efficacy ([2]; 1.5 mg group (2/37)): 5%
reduction in mean facial papule or pastule count ([2]; 1.5 mg group): 54%
reduction in mean facial non-inflammatory lesion count ([2]; 1.5 mg group): 70%
reduction in mean total facial nodulocystic lesion count ([2]; 1.5 mg group): 73%
mean total facial nodulocystic lesion count at the end of the treatment period ([2]; 1.5 mg group, from 11.8 at baseline): 3.2
mean facial papule or pastule count at the end of the treatment period ([2]; 1.5 mg group, from 29.1 at baseline): 13.3
mean facial non-inflammatory lesion count at the end of the treatment period ([2]; 1.5 mg group, from 59.2 at baseline): 17.8
incidence of treatment success (≧50% global improvement) vs placebo ([2]; 3 mg and 6 mg, week 24 and throughout the post-treatment phase (p≦0.05)): significantly higher incidence of treatment success
patients withdrawing due to lack of efficacy ([2]; 3 mg group (0/37)): 0%
patients withdrawing due to adverse events in the treatment period ([2]; 3 mg group (2/37)): 5%
patients with either no acne or mild acne ([2]; 3 mg group, end of the post-treatment phase): 43%
reduction in mean facial papule or pastule count ([2]; 3 mg group): 61%
reduction in mean facial non-inflammatory lesion count ([2]; 3 mg group): 62%
reduction in mean total facial nodulocystic lesion count ([2]; 3 mg group): 79%
mean total facial nodulocystic lesion count at the end of the treatment period ([2]; 3 mg group, from 10.8 at baseline): 2.3
mean facial papule or pastule count at the end of the treatment period ([2]; 3 mg group, from 25.4 at baseline): 10.0
mean facial non-inflammatory lesion count at the end of the treatment period ([2]; 3 mg group, from 56.1 at baseline): 21.3
median time to initial complete clearing of facial nodulocystic lesions ([2]; 3 mg group, placebo 24 weeks (p=0.017)): 16 weeks
patients withdrawing due to adverse events in the treatment period ([2]; 6 mg group (1/36)): 3%
patients withdrawing due to lack of efficacy ([2]; 6 mg group (2/36)): 6%
patients with either no acne or mild acne ([2]; 6 mg group, end of the post-treatment phase): 53%
reduction in mean facial papule or pastule count ([2]; 6 mg group): 55%
reduction in mean facial non-inflammatory lesion count ([2]; 6 mg group): 72%
reduction in mean total facial nodulocystic lesion count ([2]; 6 mg group): 86%
mean total facial nodulocystic lesion count at the end of the treatment period ([2]; 6 mg group, from 11.6 at baseline): 1.6
mean facial papule or pastule count at the end of the treatment period ([2]; 6 mg group, from 24.6 at baseline): 11.1
mean facial non-inflammatory lesion count at the end of the treatment period ([2]; 6 mg group, from 47.7 at baseline): 13.5
median time to initial complete clearing of facial nodulocystic lesions ([2]; 6 mg group, placebo 24 weeks (p=0.081)): 16 weeks
overall acne severity ([2]; 6 mg, from week 16 until the end of the post-treatment phase (p≦0.01)): reduces the overall acne severity significantly more than placebo
changes in urinalysis, chemistry, or hematology measures (including liver function tests, triglycerides, total cholesterol, HDL cholesterol) [2, 7]: None of the treatment groups show any consistent clinically significant changes
ligament calcification, osteophyte formation, or changes in bone density [2, 7]: None of the treatment groups show any clinically significant ligament calcification, osteophyte formation, or changes in bone density
percentage of patients with at least a 90% reduction in facial nodulocystic lesion count vs placebo ([2]; 1.5, 3, and 6 mg groups, week 24): significantly greater
sebum secretion (Sebutape method) ([2]; oral tazarotene 0.75 to 6 mg vs placebo): does not substantially reduce sebum secretion relative to placebo
patients with either no acne or mild acne ([2]; three highest dose groups, end of the treatment phase, placebo 19%): More than 45%
patients achieving treatment success ([2]; three highest doses, by week 12): more than 70%
patients achieving treatment success ([2]; two highest doses, by week 24): more than 86%
incidence of asthenia [3]: 6%
incidence of back pain [3]: 11%
incidence of headache [3]: 11%
incidence of infection [3]: 10%
incidence of myalgia [3]: 15%
psoriasis symptoms and lesions ([4]; 6 mg per day, after 30 days): symptoms of itching and burning are relieved and the severity of their lesions are substantially lessened
serum FSH and LH levels ([4]; tazarotene 6 mg per day with Ortho-Novum): remain within the normal ranges
AP1 antagonism (AP1): potent AP1 antagonist
